Laboratory results published in US20210324005A1, “Beta-Arrestin Effectors and Compositions and Methods of Use Thereof” (Trevena, Inc., priority 2020, published 2021).
One block for each molecule: values may come before it.

Columns and labels:
[1] = tested on: D-Dimer response; assay: Reduction in IAS and FAS D-Dimer response in patients with COVID-19 infection; assay type: in vivo, human; settings: COVID-19 patients, infused at 12 mg/hr for up to 7 days
Procedure: D-Dimer formation is elevated in patients with ARDS and COVID. A study was performed to determine the ability of TRV027 to reduce the effects of D-Dimer formation. […] Each group was monitored for an IAS D-Dimer response (>30% reduction) and a FAS D-Dimer response (>30% reduction). In the control group, 2/8 patients had greater than a 30% reduction in the IAS D-Dimer response and 1/7 patients had greater than a 30% reduction in the FAS D-Dimer response. […] Therefore, the data illustrates the effect of a peptide as provided for herein can have on the reduction in the D-Dimer response. It is anticipated that the reduction in the D-Dimer response as measured by these assays will lead to clinical benefit in patients that are infected and/or hospitalized with COVID-19.

[2] = target: T1, rat AT1aR (Rattus norvegicus, UniProt P25095); assay: PathHunter β-arrestin-2 recruitment assay, rat AT1aR; assay type: cell-based; settings: PathHunter β-arrestin HEK293 cells; inactive = EC50 greater than 10 uM
T1 sequence (P25095 1-359): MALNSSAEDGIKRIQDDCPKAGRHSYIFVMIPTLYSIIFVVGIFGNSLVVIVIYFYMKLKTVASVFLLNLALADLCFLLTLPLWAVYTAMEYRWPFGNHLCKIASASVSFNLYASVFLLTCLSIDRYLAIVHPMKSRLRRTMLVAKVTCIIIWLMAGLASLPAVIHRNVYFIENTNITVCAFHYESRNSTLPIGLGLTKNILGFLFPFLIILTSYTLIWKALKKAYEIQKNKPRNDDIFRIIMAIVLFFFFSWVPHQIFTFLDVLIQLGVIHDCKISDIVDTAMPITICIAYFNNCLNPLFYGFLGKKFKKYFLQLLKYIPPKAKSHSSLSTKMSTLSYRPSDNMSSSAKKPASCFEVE
Procedure: The proximal event in β-arrestin function mediated by GPCRs is recruitment to receptors following ligand binding and receptor phosphorylation by GRK's. Thus, the measure of β-arrestin recruitment was used to determine ligand efficacy for β-arrestin function.
B-arrestin-2 recruitment to the human and rat angiotensin 2 type 1 receptor (human AT1R and rat AT1aR, respectively) was measured with the PathHunter™ β-arrestin assay (DiscoveRx Corporation, Fremont Calif.). Cells, plasmid(s), and detection reagent(s) were purchased from DiscoveRx, and assays were performed per the manufacturer's instructions. Human AT1R and rat AT1aR were cloned into the pCMV-ProLink vector, verified by sequencing, and transfected into PathHunter β-arrestin HEK293 cells. Stably transfected clonal cell lines were selected with Hygromycin and G418. These clonal cell lines were used for all experiments.
For assays, 25,000 cells were seeded per well in 96-well microplates in volumes of 90 μL and allowed to grow overnight at 37° C. in 5% CO2. Peptides provided herein were dissolved in deionized water to a concentration of 1 mM. […] The microplates were then incubated at room temperature for 60 minutes, and then luminescence was measured using a NOVOstar microplate reader purchased from BMG Labtech. B-arrestin-2 recruitment to receptors was measured as relative luminescence intensity expressed in arbitrary units.

[3] = target: T2, rat angiotensin 2 type 1 receptor (rat, UniProt P25095 1-359); assay: cell-based or functional assay
T2 sequence (looked up): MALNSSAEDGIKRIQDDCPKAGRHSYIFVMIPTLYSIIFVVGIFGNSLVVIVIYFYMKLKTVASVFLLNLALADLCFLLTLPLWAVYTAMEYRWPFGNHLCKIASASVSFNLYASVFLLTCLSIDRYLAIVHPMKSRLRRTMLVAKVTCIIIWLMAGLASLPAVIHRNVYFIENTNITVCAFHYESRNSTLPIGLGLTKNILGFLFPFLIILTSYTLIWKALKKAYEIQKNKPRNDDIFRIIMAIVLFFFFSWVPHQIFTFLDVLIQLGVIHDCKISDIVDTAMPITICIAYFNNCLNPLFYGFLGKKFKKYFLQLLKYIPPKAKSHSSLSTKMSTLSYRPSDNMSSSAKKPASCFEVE

[4] = target: T3, human angiotensin 2 type 1 receptor (human, UniProt P30556 1-359); assay: cell-based or functional assay
T3 sequence (looked up): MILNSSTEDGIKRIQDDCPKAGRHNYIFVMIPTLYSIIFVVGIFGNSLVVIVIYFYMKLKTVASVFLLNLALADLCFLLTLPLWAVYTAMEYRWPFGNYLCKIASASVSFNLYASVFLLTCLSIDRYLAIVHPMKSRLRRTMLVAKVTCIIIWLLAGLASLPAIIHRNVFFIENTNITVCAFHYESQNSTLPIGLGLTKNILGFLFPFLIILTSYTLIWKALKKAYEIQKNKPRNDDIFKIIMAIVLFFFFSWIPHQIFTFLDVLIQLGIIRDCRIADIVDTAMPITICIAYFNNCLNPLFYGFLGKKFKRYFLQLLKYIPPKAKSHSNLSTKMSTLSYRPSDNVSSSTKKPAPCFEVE

Molecule: CC[C@H](C)[C@H](NC(=O)[C@H](Cc1ccc(O)cc1)NC(=O)[C@@H](NC(=O)[C@H](CCCNC(=N)N)NC(=O)CNC)C(C)C)C(=O)N[C@@H](Cc1cnc[nH]1)C(=O)N1CCC[C@H]1C(=O)N[C@H](C)C(=O)O [SEQ ID NO: 27, Sar-Arg-Val-Tyr-Ile-His-Pro-D-Ala-OH]
patients with greater than 30% reduction in the FAS D-Dimer response [1]: 4 out of 9
patients with greater than 30% reduction in the IAS D-Dimer response [1]: 5 out of 11

rat AT1aR b-arrestin2 EC50 (M) [2]: inactive
Molecule: CCCCC(=O)N(Cc1ccc(-c2ccccc2-c2nnn[nH]2)cc1)[C@H](C(=O)O)C(C)C [Valsartan]

b-arrestin2 Max (%) [3]: 71.9%
b-arrestin2 Max (%) [4]: 47.3%
Molecule: ARVYIHPA (NMAla (N-Methyl-L-alanine) at X1; D-Ala at X8) [SEQ ID NO: 44 (NMAla-Arg-Val-Tyr-Ile-His-Pro-D-Ala-OH)]
